Assay results published in publication PMC11513893, “Discovery of Oral Degraders of the ROS1 Fusion Protein with Potent Activity against Secondary Resistance Mutations” (Journal of Medicinal Chemistry, 2024).

Assays:
ROS1 (L2086F) = assay: Degradation assay; format: cell-based; conditions: average of duplicate measurements
Experimental: However, the degradation selectivity of 9o often contrasts with its kinase binding selectivity as determined in cells treated with 9o where the kinase level was measurable by Western blot analysis. […] For example, FLT3, CHEK2, and FES, all with kinase binding at <10 nM, were only moderately or minimally degraded, if at all (Table 9).
Protein levels were analyzed using a WES instrument according to the WES User Guide from ProteinSimple in duplicate experiments. The samples were mixed with the fluorescent 5 master mix (ProteinSimple) and then heated at 95 °C for 5 min. Boiled samples, biotinylated protein ladder, antibody diluent, Streptavidin-HRP, primary antibodies, ProteinSimple horseradish peroxidase conjugated antirabbit or antimouse secondary antibodies, luminol-peroxide, and wash buffer were loaded into the WES plate (Wes 12–230 kDa Prefilled Plates with Split Buffer, ProteinSimple). The plates and capillary cartridges were loaded into the WES instrument, and protein separation, antibody incubation, and imaging were performed according to manufacturer’s instructions. Compass software (ProteinSimple) was used to acquire the data and to generate the virtual blot image reconstruction and chemiluminescence signal intensity electropherograms. […] Protein levels are expressed as the AUC of the peak chemiluminescence intensity. […]

ERBB2 = ERBB2 (Homo sapiens, UniProt P04626); assay: Kinase assay; format: biochemical; conditions: average of duplicate measurements
Chain of ERBB2 (P04626 23-1255, species assumed): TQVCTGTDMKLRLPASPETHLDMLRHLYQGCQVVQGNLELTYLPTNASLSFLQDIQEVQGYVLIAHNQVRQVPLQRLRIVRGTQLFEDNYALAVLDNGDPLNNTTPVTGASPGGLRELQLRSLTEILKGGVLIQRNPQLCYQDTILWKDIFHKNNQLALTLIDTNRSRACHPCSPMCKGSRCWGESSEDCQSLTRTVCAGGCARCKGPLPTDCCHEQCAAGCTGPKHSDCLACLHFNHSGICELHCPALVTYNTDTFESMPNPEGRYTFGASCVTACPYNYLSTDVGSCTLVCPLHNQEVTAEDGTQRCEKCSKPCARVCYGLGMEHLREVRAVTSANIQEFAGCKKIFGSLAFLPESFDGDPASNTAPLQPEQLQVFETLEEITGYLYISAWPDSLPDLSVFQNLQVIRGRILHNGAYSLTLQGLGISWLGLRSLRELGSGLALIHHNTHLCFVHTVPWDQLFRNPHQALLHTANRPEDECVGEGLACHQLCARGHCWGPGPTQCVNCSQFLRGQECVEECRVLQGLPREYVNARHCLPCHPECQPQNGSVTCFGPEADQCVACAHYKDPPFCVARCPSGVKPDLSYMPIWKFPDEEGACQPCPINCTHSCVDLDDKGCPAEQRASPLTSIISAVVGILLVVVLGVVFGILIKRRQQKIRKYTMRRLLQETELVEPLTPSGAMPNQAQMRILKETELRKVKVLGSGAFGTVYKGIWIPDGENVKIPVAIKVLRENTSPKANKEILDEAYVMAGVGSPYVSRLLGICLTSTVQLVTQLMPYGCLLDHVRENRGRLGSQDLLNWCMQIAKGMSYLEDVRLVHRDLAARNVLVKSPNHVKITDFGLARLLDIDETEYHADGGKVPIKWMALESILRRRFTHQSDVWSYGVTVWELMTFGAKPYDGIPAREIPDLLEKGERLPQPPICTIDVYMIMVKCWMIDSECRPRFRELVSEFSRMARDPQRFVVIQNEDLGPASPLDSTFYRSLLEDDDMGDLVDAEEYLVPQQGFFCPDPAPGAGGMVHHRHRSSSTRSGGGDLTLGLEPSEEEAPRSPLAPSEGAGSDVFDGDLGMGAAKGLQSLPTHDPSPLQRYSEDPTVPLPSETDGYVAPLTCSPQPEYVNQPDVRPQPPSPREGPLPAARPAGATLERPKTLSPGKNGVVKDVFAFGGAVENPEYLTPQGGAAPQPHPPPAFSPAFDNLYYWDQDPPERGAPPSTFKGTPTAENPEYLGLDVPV

[1] = tested on: Ba/F3 ROS1 (SLC34A2) G2032R-F2075C; assay: Antiproliferation assay; format: cell-based; conditions: Mus musculus, BaF3; Ba/F3 cell line
Experimental: (§1) Ba/F3 immortalized murine bone marrow–derived pro-B cells were obtained from Creative Biogene (Shirley, NY) and cultured in RPMI supplemented with 10% FBS and IL3 (0.5 ng/mL). Ba/F3 cells expressing ROS1 variants were maintained in RPMI supplemented with 10% FBS and puromycin (0.7 mg/mL). Crizotinib, ceritinib, brigatinib, repotrectinib, and lorlatinib were purchased from MedChem Express. Each compound was dissolved in DMSO and serially diluted in RPMI for cell culture experiments.
(§2) To assess the 72 h effect of drug treatment on cell proliferation, 2000 to 3000 cells were plated in replicates of three in 96-well plates. The plates were placed in an incubator at 37 °C, 5% CO2 for 72 h. Following drug treatments, the cells were incubated with the Alamar Blue Assay reagent (BioRad), 5 μL each well for 4 h at 37 °C and 5% CO2. Luminescence was measured on a multiplate reader and analyzed. […] IC50 values were determined using a nonlinear regression model with a sigmoidal dose response in GraphPad. The data were collected based on triplicate experiments, and presented as mean ± SD.

[2] = tested on: Ba/F3 ROS1 (SLC34A2) F2075C-G1837E; assay: Antiproliferation assay; format: cell-based; conditions: Mus musculus, BaF3; Ba/F3 cell line
Experimental: as §1, §2

[3] = tested on: Ba/F3 ROS1 (SLC34A2) G2032R-D2113G; assay: Antiproliferation assay; format: cell-based; conditions: Mus musculus, BaF3; Ba/F3 cell line
Experimental: as §1, §2

[4] = Metabolic stability in rat microsomes; format: in vitro ADME; conditions: rat, pooled rat microsomes, pH 7.4, 250 nM compound, NADPH, 37 °C
Experimental: Pooled human and rat microsomes were prepared and stored at −80 °C prior to use. A master-mix containing microsome, phosphate buffer, and test compound (9 series) solution was made as follows: (1) 3 μL of microsome (20 mg/mL) was diluted with mixed 30 μL of potassium phosphate buffer (pH 7.4; 10×) and 246 μL of water; (2) 3 μL of 25 μM drug solution was added to the microsome; (3) the master solution was prewarmed at 37 °C for 5 min. NADPH solution A (15 μL) and NADPH solution B (3 μL) from Promega were added to the above-mentioned master solution to initiate the reaction. The final concentration of 9 compounds in the reaction system was 250 nM. An aliquot of 20 μL was pipetted from the reaction solution and stopped by the addition of 180 μL of cold MeCN containing 25 ng of Tamoxifen-(N,N-dimethyl-13C2)-15N as an internal standard at the designated time points (0, 5, 15, 30, 45, and 60 min). The incubation solution was vortexed-mixed (800 rpm/10 min) and centrifuged at 3500 rpm for 10 min to precipitate proteins. The supernatant was collected and used for the LC/MS/MS analysis. The natural log of the remaining percentage of the test compound was plotted against time and the gradient of the line was determined.

DC50 (ROS1 (L2086F)): 5.4 nM
IC50 (ERBB2): 42 nM
IC50 [1]: 58.4 ± 11.4 nM
IC50 [2]: 0.4 ± 0.3 nM
IC50 [3]: 2.9 ± 0.5 nM
microsomal CLint at 1 h, 0.25 µM [4]: 17.4 µL/min/mg
half-life at 1 h, 0.25 µM ([4]; read-out: metabolic stability in rat microsomes T1/2): 1.33 h
Structure (SMILES): COc1cc(N2CCC(N3CCN(CC4CCN(c5ccc6c(c5)CN(C5CCC(=O)NC5=O)C6=O)CC4)CC3)CC2)ccc1Nc1ncc(Cl)c(Nc2ccccc2P(C)(C)=O)n1 (stereo not shown) [9o, 3-(5-(4-((4-(1-(4-((5-Chloro-4-((2-(dimethylphosphoryl)phenyl)amino)pyrimidin-2-yl)amino)-3-methoxyphenyl)piperidin-4-yl)piperazin-1-yl)methyl)piperidin-1-yl)-1-oxoisoindolin-2-yl)piperidine-2,6-dione]
